In test [1] the target is T1, alanine racemase (AR); light protiated form HAR (Geobacillus stearothermophilus, UniProt P10724). Description: Michaelis-Menten saturation curves. Type of test: biochemical. As to conditions: pH 8.9, 25 °C; light (protiated) enzyme.
Test [2] addresses T1, alanine racemase (AR); light protiated form HAR. The experiment in a line: steady-state racemization kinetics, competitive inhibition. The test is classed as biochemical.

For orientation: Ki means the equilibrium dissociation constant of an inhibitor or competing ligand from its target. Low values mean a stronger hold on the target, high ones a looser hold on the target.

T1 sequence (P10724 whole entry): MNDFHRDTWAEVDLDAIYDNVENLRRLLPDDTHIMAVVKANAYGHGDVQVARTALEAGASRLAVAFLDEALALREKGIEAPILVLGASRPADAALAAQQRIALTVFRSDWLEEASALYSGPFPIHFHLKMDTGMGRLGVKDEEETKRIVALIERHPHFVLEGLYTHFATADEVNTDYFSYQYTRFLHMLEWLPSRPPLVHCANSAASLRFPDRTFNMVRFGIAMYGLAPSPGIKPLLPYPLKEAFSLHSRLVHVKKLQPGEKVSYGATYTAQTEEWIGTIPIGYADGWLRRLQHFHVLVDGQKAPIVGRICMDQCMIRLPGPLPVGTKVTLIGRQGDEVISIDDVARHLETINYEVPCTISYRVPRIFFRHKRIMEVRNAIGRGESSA

`C[C@@H](N)C(=O)O` [D-alanine]: the KM result in test [1] was “Michaelis-Menten saturation curves for ^HAR and ^DAR with protiated L- and D-alanine”.
The same measure, in the same setting: for `C[C@H](N)C(=O)O` [L-alanine] the value was “Michaelis-Menten saturation curves for ^HAR and ^DAR with protiated L- and D-alanine”.
Compound `CC(C)(N)C(=O)O` [2-methylalanine] displayed a Ki in test [2] of 24 ± 1 mM.

For the origin of these results see article PMC3579662 (Journal of the American Chemical Society, 2013).
